Legend:
[1] = Hydrolytic (chemical) stability in Tris-HCl buffer pH 7.4; assay type: physicochemical; conditions: 50 mM Tris-HCl buffer pH 7.4, incubation 30 min, without microsomes
Experimental: (§1) For all 43 compounds, a first evaluation of their chemical and metabolic stabilities toward hydrolysis was performed by incubating them in buffer under physiological conditions (50 mM Tris-HCl, pH 7.4) and in mouse liver microsomes (Table 1). This model was chosen because, similar to the human liver, both of the carboxylesterase isoforms are present. […] A more interesting trend was instead possible to observe with benzoic acids.
(§2) Hydrolytic stability in MLM and HLM
(§3) The standard incubation mixture (200 µL final volume) was carried out in a 50 mM TRIS-HCl buffer (pH 7.4) containing 150 mM KCl, tween 80 as cosolvent (0.8 mg/mg protein), and the substrate (10 μM). After pre-equilibration of the mixture, an appropriate volume of MLM or HLM suspension was added to give a final protein concentration of 1.0 mg/mL. The mixture was shaken for 30 minutes at 37 °C. Control incubations were carried out without the presence or microsomes or in pure acetonitrile. Each incubation was stopped by the addition of 200 µL ice-cold acetonitrile, vortexed and centrifuged at 13000 rpm for 5 min. The supernatants were analyzed by LC-HRMS. […]

[2] = Hydrolytic stability in mouse liver microsomes (MLM); assay type: in vitro ADME; conditions: 30 min; for Residual substrate percentage, MLM: mouse liver microsomes 1.0 mg/mL protein, substrate 10 μM, 37 °C
Experimental: as §1, §2, §3

[3] = Hydrolytic stability in human liver microsomes (HLM); assay type: in vitro ADME; conditions: for Residual substrate percentage, HLM: human liver microsomes 1.0 mg/mL protein, substrate 10 μM, 37 °C; for Residual substrate percentage, HLM / Hydrolytic stability in human liver microsomes (in words): 30 min; for Hydrolytic stability toward esterases (in words): liver microsomes, species stated only for the stable ester (human liver)
Experimental: This was made in light of the fact that the overall metabolizing capability of murine hepatic enzymes, including carboxylesterases, is supposed to be higher compared to the human ones.[17]
as §2, §3

Compound | Residual substrate percentage, buffer [1] [%] | Residual substrate percentage, MLM [2] [%] | Residual substrate percentage, HLM [3] [%] | Hydrolytic stability toward esterases (in words) [3] | Hydrolytic stability toward esterases (in words) ([3]; listed as methyl 2,6-dimethylbenzoate) | Hydrolytic stability in human liver microsomes (in words) [3] | Hydrolysis of the ester group in mouse liver microsomes (in words) [2]
COC(=O)c1ccccc1 [Compound 11, methyl benzoate, reference compound] | > 99 | < 1 | < 1 |  |  |  | 
COC(=O)c1c(C)cccc1C [Compound 12, methyl 2,6-dimethylbenzoate, reference compound] | > 99 | 77 | > 99 | stable toward esterases | completely resistant to esterases |  | 
Cc1ccccc1C(OC(=O)c1ccccc1)C(=O)NC(C)(C)C (centres unmarked) [Compound 56] | >99 | <1 |  |  |  |  | 
CC(C)C(OC(=O)c1ccccc1)C(=O)NC(C)(C)C (centres unmarked) [Compound 59] | 94 | <1 |  |  |  |  | 
CCCCCCC(OC(=O)c1ccccc1)C(=O)NC(C)(C)C (centres unmarked) [Compound 60] | 93 | <1 |  |  |  |  | 
CC(C)(C)NC(=O)COC(=O)c1ccccc1 [Compound 61] | >99 | <1 |  |  |  |  | 
CC(C)(C)NC(=O)C(OC(=O)c1ccccc1)c1ccccc1 (centres unmarked) [Compound 62] | >99 | <1 |  |  |  |  | 
COc1ccc(C(OC(=O)c2ccccc2)C(=O)NC(C)(C)C)cc1 (centres unmarked) [Compound 63] | 92 | <1 |  |  |  |  | 
CCCCCCC(OC(=O)c1cccs1)C(=O)NC(C)(C)C (centres unmarked) [Compound 64] | >99 | <1 | <1 |  |  | instability | 
CC(C)C(OC(=O)/C=C/c1ccccc1)C(=O)NC(C)(C)C (centres unmarked) [Compound 65] | >99 | <1 | 3 |  |  | instability | completely unstable
COc1ccc(C(=O)OC(C(=O)NC(C)(C)C)C(C)C)cc1 (centres unmarked) [Compound 66] | 92 | <1 |  |  |  |  | 
Cc1ccc(C(=O)OC(C(=O)NC(C)(C)C)C(C)C)cc1 (centres unmarked) [Compound 67] | 94 | <1 |  |  |  |  | 
CC(C)C(OC(=O)c1ccc(Cl)cc1)C(=O)NC(C)(C)C (centres unmarked) [Compound 68] | >99 | <1 |  |  |  |  | 
CC(C)C(OC(=O)c1ccc([N+](=O)[O-])cc1)C(=O)NC(C)(C)C (centres unmarked) [Compound 69] | >99 | <1 |  |  |  |  | 
CC(=O)OC(C(=O)NC(C)(C)C)C(C)C (centres unmarked) [Compound 70] | 94 | 5 |  |  |  |  | easily hydrolyzed
CCCCCC(=O)OC(C(=O)NC(C)(C)C)C(C)C (centres unmarked) [Compound 71] | 91 | <1 |  |  |  |  | easily hydrolyzed
CC(C)(C)NC(=O)C(OC(=O)c1ccccc1)c1ccc(Cl)cc1 (centres unmarked) [Compound 72] | >99 | <1 |  |  |  |  | rapidly cleaved
CC(C)C(OC(=O)C(C)(C)C)C(=O)NC(C)(C)C (centres unmarked) [Compound 73] | >99 | 30 | 52 |  |  | moderately more stable | easily hydrolyzed
CC(C)C(OC(=O)Cc1ccccc1)C(=O)NC(C)(C)C (centres unmarked) [Compound 74, 1-(tert-butylamino)-3-methyl-1-oxobutan-2-yl 2-phenylacetate] | >99 | 17 |  |  |  |  | easily hydrolyzed
CC(C)C(OC(=O)CCCCCc1ccccc1)C(=O)NC(C)(C)C (centres unmarked) [Compound 75, 1-(tert-butylamino)-3-methyl-1-oxobutan-2-yl 6-phenylhexanoate] | >99 | <1 |  |  |  |  | easily hydrolyzed

Compound | Residual substrate percentage, buffer [1] [%] | Residual substrate percentage, MLM [2] [%] | Residual substrate percentage, HLM [3] [%] | Hydrolytic stability toward esterases (in words) [3] | Hydrolytic stability toward esterases (in words) ([3]; listed as methyl 2,6-dimethylbenzoate) | Hydrolytic stability in human liver microsomes (in words) [3] | Hydrolysis of the ester group in mouse liver microsomes (in words) [2]
CC(C)C(OC(=O)COc1ccccc1)C(=O)NC(C)(C)C (centres unmarked) [Compound 76, 1-(tert-butylamino)-3-methyl-1-oxobutan-2-yl 2-phenoxyacetate] | >99 | <1 |  |  |  |  | completely unstable
CCCCCCCCCCCC(=O)OC(C(=O)NC(C)(C)C)C(C)C (centres unmarked) [Compound 77, 1-(tert-butylamino)-3-methyl-1-oxobutan-2-yl dodecanoate] | 77 | 7 |  |  |  |  | easily hydrolyzed
Cc1cccc(C)c1C(=O)OCC(=O)NC(C)(C)C [Compound 79] | 95 | 94 |  |  |  |  | 
Cc1ccccc1C(=O)OCC(=O)NC(C)(C)C [Compound 81] | >99 | <1 |  |  |  |  | the hydrolysis of the ester was complete
CC(C)(C)NC(=O)COC(=O)Cc1c(Cl)cccc1Cl [Compound 82] | >99 | 1 |  |  |  |  | easily hydrolyzed
CC(C)(C)NC(=O)COC(=O)C(=O)c1ccccc1 [Compound 83] | <1 | <1 |  |  |  |  | completely unstable
CC(C)(C)NC(=O)COC(=O)C(C)(C)Oc1ccc(Cl)cc1 [Compound 84] | >99 | <1 | 2 |  |  | instability | completely unstable
CC(C)(C)NC(=O)COC(=O)c1c(F)cccc1F [Compound 85] | >99 | <1 |  |  |  |  | completely hydrolyzed
CC(C)(C)NC(=O)COC(=O)c1ccccc1Br [Compound 86] | >99 | <1 |  |  |  |  | the hydrolysis of the ester was complete
CC(C)(C)NC(=O)COC(=O)c1ccccc1I [Compound 87] | >99 | <1 |  |  |  |  | the hydrolysis of the ester was complete
CC(C)(C)NC(=O)COC(=O)c1ccccc1-c1ccccc1 [Compound 88] | >99 |  |  |  |  |  | 
Cc1c(Br)cccc1C(=O)OCC(=O)NC(C)(C)C [Compound 89] | >99 | 1 | <1 |  |  | easy hydrolysis | the hydrolysis of the ester was complete
CC(C)(C)NC(=O)COC(=O)c1ccccc1Cl [Compound 90] | >99 | <1 |  |  |  |  | the hydrolysis of the ester was complete
CC(C)(C)NC(=O)COC(=O)C(C)(C)c1ccc(Br)cc1 [Compound 91] | >99 | 12 |  |  |  |  | easily hydrolyzed
CCC(C(=O)OCC(=O)NC(C)(C)C)c1ccccc1 (centres unmarked) [Compound 92] | >99 | <1 |  |  |  |  | easily hydrolyzed
Cc1cccc(C)c1C(=O)OC(C(=O)NC(C)(C)C)C(C)C (centres unmarked) [Compound 93] | >99 | >99 |  |  |  |  | 
Cc1cccc(C)c1C(=O)OCC(=O)NCc1ccccc1 [Compound 94] | >99 | >99 |  |  |  |  | 
CC(C)(C)NC(=O)COC(=O)c1c(Cl)cccc1Cl [Compound 95] | >99 | 78 |  |  |  |  | 
CC(C)(C)NC(=O)COC(=O)c1c(Cl)cccc1C(F)(F)F [Compound 96] | >99 | >99 |  |  |  |  | 
CC(C)(C)NC(=O)COC(=O)C12CC3CC(CC(C3)C1)C2 [Compound 97] | >99 | 1 | 2 |  |  | instability | rapidly metabolized

— publication PMC9743426, “Expanding the Chemical Space of Drug-like Passerini Compounds: Can α-Acyloxy Carboxamides Be Considered Hard Drugs?” (ACS Medicinal Chemistry Letters, 2022)
